The source of these data is patent US20080103158A1, “METHODS FOR TREATING DELAYING THE PROGRESSION OF ALZHEIMER'S DISEASE WITH HETEROCYCLIC COMPOUNDS” (ZENYAKU KOGYO KABUSHIKI KAISHA, priority 2006, published 2008).

Compound `O=C1N=C2C=CC=CN2C1(Cc1ccc([N+](=O)[O-])cc1)Cc1ccc([N+](=O)[O-])cc1` displayed a melting point above 300 °C.
As for `CC(C)OC1=CC=CN2C1=NC(=O)C2(Cc1ccccc1)Cc1ccccc1` [Compound 2, 3,3-dibenzyl-8-isopropoxyimidazo[1,2-a]pyridin-2(3H)-one], the figure is 247 to 248 °C; as for `COC1=CC=CN2C1=NC(=O)C2(Cc1ccccc1)Cc1ccccc1` [Compound 3, 3,3-dibenzyl-8-methoxyimidazo[1,2-a]pyridin-2(3H)-one], 274 to 275 °C; as for `O=C1N=C2C(OCC3CC3)=CC=CN2C1(Cc1ccccc1)Cc1ccccc1` [Compound 4, 3,3-dibenzyl-8-cyclopropylmethyloxy-imidazo[1,2-a]pyridin-2(3H)-one], 236 to 237 °C.
The result for `O=C1N=C2C=CC(Cl)=CN2C1(Cc1ccccc1)Cc1ccccc1` [Compound 5, 3,3-dibenzyl-6-chloroimidazo[1,2-a]pyridin-2(3H)-one] reads 246 to 248 °C.
`C=CCOC1=CC=CN2C1=NC(=O)C2(Cc1ccccc1)Cc1ccccc1` [Compound 6, 8-allyloxy-3,3-dibenzylimidazo[1,2-a]pyridin-2(3H)-one]: the melting point was in the range of 214 to 215 °C.
As for `O=C1N=C2C(OCc3ccccc3)=CC=CN2C1(Cc1ccccc1)Cc1ccccc1` [Compound 7, 3,3-dibenzyl-8-benzyloxyimidazo[1,2-a]pyridin-2(3H)-one], the figure is 240 to 241 °C; as for `CC(c1ccccc1)C1(C(C)c2ccccc2)C(=O)N=C2C(OCc3ccccc3)=CC=CN21` (centres unmarked) [Compound 8, 8-benzyloxy-3,3-bis(1-phenylethyl)imidazo[1,2-a]pyridin-2(3H)-one], 234 to 235 °C; as for `CC1=CC2=NC(=O)C(Cc3ccccc3)(Cc3ccccc3)N2C(C)=C1` [Compound 10, 3,3-dibenzyl-5,7-dimethylimidazo[1,2-a]pyridin-2(3H)-one], 237 to 238 °C.
`O=C1N=C2C(OC3CCCC3)=CC=CN2C1(Cc1ccccc1)Cc1ccccc1` [Compound 12, 3,3-dibenzyl-8-cyclopentyloxyimidazo[1,2-a]pyridin-2(3H)-one] displayed a melting point of 268 to 269 °C.
The result for `O=C1N=C2C(Cl)=CC(Cl)=CN2C1(Cc1ccccc1)Cc1ccccc1` [Compound 13, 3,3-dibenzyl-6,8-dichloroimidazo[1,2-a]pyridin-2(3H)-one] reads 260 to 261 °C.
With `O=C1N=C2C(Cl)=CC(C(F)(F)F)=CN2C1(Cc1ccccc1)Cc1ccccc1` [Compound 14, 3,3-dibenzyl-8-chloro-6-trifluoromethylimidazo[1,2-a]pyridin-2(3H)-one], the melting point fell in the range of 234 to 236 °C.
As for `CC1=CC=CN2C1=NC(=O)C2(Cc1ccncc1)Cc1ccncc1` [Compound 16, 8-methyl-3,3-bis(4-pyridylmethyl)imidazo[1,2-a]pyridin-2(3H)-one], the melting point was in the range of 228 to 230 °C.
As for `O=C1N=C2C=CC=CN2C1(Cc1ccc(F)cc1)Cc1ccc(F)cc1` [Compound 17, 3,3-bis(4-fluorobenzyl)imidazo[1,2-a]pyridin-2(3H)-one], the figure is 290 to 292 °C; as for `CN(C)c1ccc(CC2(Cc3ccc(N(C)C)cc3)C(=O)N=C3C=CC=CN32)cc1` [Compound 18, 3,3-bis(4-dimethylaminobenzyl)imidazo[1,2-a]pyridin-2(3H)-one], above 300 °C; as for `O=C1N=C2C=CC=CN2C1(Cc1cccc(Cl)c1)Cc1cccc(Cl)c1` [Compound 19, 3,3-bis(3-chlorobenzyl)imidazo[1,2-a]pyridin-2(3H)-one], 271 to 272 °C.
In turn, `COc1ccc(CC2(Cc3ccc(OC)cc3)C(=O)N=C3C=CC=CN32)cc1` [Compound 20, 3,3-bis(4-methoxybenzyl)imidazo[1,2-a]pyridin-2(3H)-one] registered a melting point of 248 to 251 °C.
As for `O=C1N=C2C=CC=CN2C1(Cc1ccc(-c2ccccc2)cc1)Cc1ccc(-c2ccccc2)cc1` [Compound 21, 3,3-bis(4-biphenylmethyl)imidazo[1,2-a]pyridin-2(3H)-one], the melting point is above 300 °C.
The result for `N#Cc1ccc(CC2(Cc3ccc(C#N)cc3)C(=O)N=C3C=CC=CN32)cc1` [Compound 22, 3,3-bis(4-cyanobenzyl)imidazo[1,2-a]pyridin-2(3H)-one] reads 294 °C (dec.); that for `O=C1N=C2C=CC=CN2C1(Cc1ccc(O)cc1)Cc1ccc(O)cc1` [Compound 23, 3,3-bis(4-hydroxybenzyl)imidazo[1,2-a]pyridin-2(3H)-one], 276.5 to 277.5 °C; that for `C=CCC1(CC=C)C(=O)N=C2C=CC=CN21` [Compound 24, 3,3-diallylimidazo[1,2-a]pyridin-2(3H)-one], 64 to 66 °C.
On to `C=CCC1(CC=C)C(=O)N=C2C(OCc3ccccc3)=CC=CN21` [Compound 25, 3,3-diallyl-8-benzyloxyimidazo[1,2-a]pyridin-2(3H)-one], for which the melting point lay within 160 to 162 °C.
In turn, `O=C1N=C2C=CC=CN2C1(CCCc1ccccc1)CCCc1ccccc1` [Compound 26, 3,3-bis(3-phenyl-1-propyl)imidazo[1,2-a]pyridin-2(3H)-one] showed a melting point of 227 to 228 °C.
The result for `O=C1N=C2C=CC=CN2C12Cc1cccc3cccc(c13)C2` [Compound 27, spiro[imidazo[1,2-a]pyridin-2(3H)-one-3,2′-[2,3]dihydrophenarene]] reads 262 °C (dec.).
For `O=C1N=C2C=CC=CN2C1(Cc1ccc(F)cc1F)Cc1ccc(F)cc1F` [Compound 28, 3,3-bis(2,4-difluorobenzyl)imidazo[1,2-a]pyridin-2(3H)-one], the melting point was in the range of 269 to 271 °C.
For `CCCC1(CCC)C(=O)N=C2C=CC=CN21` [Compound 29, 3,3-dipropylimidazo[1,2-a]pyridin-2(3H)-one], the melting point lay within 73 to 75 °C.
Consider `O=C1N=C2C=CC=CN2C1(Cc1cccs1)Cc1cccs1` [Compound 30, 3,3-bis(2-thienylmethyl)imidazo[1,2-a]pyridin-2(3H)-one], for which the melting point was 289.5 °C (dec.).
As for `CC(=O)NC1=CC=CN2C1=NC(=O)C2(Cc1ccccc1)Cc1ccccc1` [Compound 31, 8-acetylamino-3,3-dibenzylimidazo[1,2-a]pyridin-2(3H)-one], the figure is 235 to 237 °C.
Take `O=C1N=C2C=CC=CN2C1(Cc1ccco1)Cc1ccco1` [Compound 32, 3,3-bis(2-furylmethyl)imidazo[1,2-a]pyridin-2(3H)-one]: the melting point is 205 °C (dec.).
The result for `CC1(C)C(=O)N=C2C=CC=CN21` [Compound 33, 3,3-dimethylimidazo[1,2-a]pyridin-2(3H)-one] reads 200 to 202 °C; that for `CCCCC1(CCCC)C(=O)N=C2C=CC=CN21` [Compound 34, 3,3-dibutylimidazo[1,2-a]pyridin-2(3H)-one], 100.5 to 102 °C.
The result for `C#CCC1(CC#C)C(=O)N=C2C=CC=CN21` [Compound 35, 3,3-di(2-propinyl)imidazo[1,2-a]pyridin-2(3H)-one] reads 172 to 175 °C.
On to `O=C1N=C2C(O)=CC=CN2C1(Cc1ccccc1)Cc1ccccc1` [Compound 36, 3,3-dibenzyl-8-hydroxyimidazo[1,2-a]pyridin-2(3H)-one], for which the melting point lay in the range of 283 to 285 °C.
Regarding `O=C1N=C2C(NCc3ccccc3)=CC=CN2C1(Cc1ccccc1)Cc1ccccc1` [Compound 37, 3,3-dibenzyl-8-benzylaminoimidazo[1,2-a]pyridin-2(3H)-one], the melting point is 250 °C.
As for `NC1=CC=CN2C1=NC(=O)C2(Cc1ccccc1)Cc1ccccc1` [Compound 39, 8-amino-3,3-dibenzylimidazo[1,2-a]pyridin-2(3H)-one], the figure is 283 to 285 °C; as for `COC(=O)c1ccc(CC2(Cc3ccc(C(=O)OC)cc3)C(=O)N=C3C=CC=CN32)cc1` [Compound 40, 3,3-bis(4-methoxycarbonylbenzyl)imidazo[1,2-a]pyridin-2(3H)-one], 289 to 290 °C; as for `O=C1N=C2SC=CN2C1(Cc1ccccc1)Cc1ccccc1` [Compound 44, 5,5-dibenzylimidazo[2,1-b]thiazol-6(5H)-one], above 300 °C.
As for `O=C1N=C2N=CC=CN2C1(Cc1ccccc1)Cc1ccccc1` [Compound 45, 3,3-dibenzylimidazo[1,2-a]pyrimidin-2(3H)-one], the melting point was above 300 °C.
The compound `Cc1ccc(CC2(Cc3ccc(C)cc3)C(=O)N=C3SC=CN32)cc1` [Compound 46, 5,5-bis(4-methylbenzyl)imidazo[2,1-b]thiazol-6(5H)-one] yielded a melting point above 300 °C.
On to `N#Cc1ccc(CC2(Cc3ccc(C#N)cc3)C(=O)N=C3SC=CN32)cc1` [Compound 47, 5,5-bis(4-cyanobenzyl)imidazo[2,1-b]thiazol-6(5H)-one], for which the melting point was 264 to 267 °C.
The result for `CC1=CN2C(=NC(=O)C2(Cc2ccccc2)Cc2ccccc2)S1` [Compound 48, 5,5-dibenzyl-2-methylimidazo[2,1-b]thiazol-6(5H)-one] reads above 300 °C; that for `O=C1N=C2SC=CN2C1(Cc1cccs1)Cc1cccs1` [Compound 49, 5,5-bis(2-thienylmethyl)imidazo[2,1-b]thiazol-6(5H)-one], 286 °C (dec.).
The result for `O=C1N=C2N=CC=CN2C1(Cc1cccs1)Cc1cccs1` [Compound 50, 3,3-bis(2-thienylmethyl)imidazo[1,2-a]pyrimidin-2(3H)-one] reads 192 °C (dec.).
The compound `O=C1N=C2SCCN2C1(Cc1ccccc1)Cc1ccccc1` [Compound 51, 5,5-dibenzyl-2,3-dihydroimidazo[2,1-b]thiazol-6(5H)-one] gave a melting point of 233 to 236 °C.
As to `Oc1nc2ccccn2c1Cc1ccc2ccccc2c1` [Compound 52, 2-hydroxy-3-(2-naphthylmethyl)imidazo[1,2-a]pyridine], the melting point is 205 °C (dec.).
As to `O=C1N=C2C=CC=CN2C12Cc1cc3ccccc3cc1C2` [Compound 53, spiro[imidazo[1,2-a]pyridin-2(3H)-one-3,2′-benzo[f]indan]], the melting point was 214 °C (dec.).
The result for `O=C1N=C2C=CC=CN2C1Cc1ccccc1` (centres unmarked) [Compound 54, 3-benzylimidazo[1,2-a]pyridin-2(3H)-one] reads 182 °C (dec.).
